According to patent US9878985B2, “Benzocyclobutane(thio) carboxamides” (BAYER CROPSCIENCE AKTIENGESELLSCHAFT, priority 2013, dated 2018):

test: Log P by HPLC on reversed phase columns (EEC directive 79/831 Annex V.A8); format: physicochemical; settings: Table 1; method [a]: LC-UV, acidic range, 0.1% formic acid in water and acetonitrile
Description: Measurement of Log P values was performed according to EEC directive 79/831 Annex V.A8 by HPLC (High Performance Liquid Chromatography) on reversed phase columns with the following method: • [^a] Log P value is determined by measurement of LC-UV, in an acidic range, with 0.1% formic acid in water and acetonitrile as eluent (linear gradient from 10% acetonitrile to 95% acetonitrile). Calibration was done with straight-chain alkan2-ones (with 3 to 16 carbon atoms) with known Log P values (measurement of Log P values using retention times with linear interpolation between successive alkanones). Lambda-max-values were determined using UV-spectra from 200 nm to 400 nm and the peak values of the chromatographic signals.

Row | SMILES | LogP
1 | Cn1cc(C(=O)Nc2cccc3c2CC3c2ccccc2)c(C(F)F)n1 (centres unmarked) [Example I-01] | 3.20^[a]
2 | Cn1nc(C(F)F)c(C(=O)Nc2cccc3c2CC32CCCC2)c1F [Example I-02] | 3.90[a]
3 | Cn1cc(C(=O)Nc2cccc3c2CC32CCCC2)c(C(F)F)n1 [Example I-03] | 3.59^[a]
4 | CCC1(C)Cc2c(NC(=O)c3cccnc3C(F)F)cccc21 (centres unmarked) [Example I-05] | 3.31^[a]
5 | Cn1nc(C(F)F)c(C(=O)Nc2cccc3c2CC32CCCCC2)c1Cl [Example I-07] | 4.56^[a]
6 | Cn1cc(C(=O)Nc2cccc3c2CC32CCCCC2)c(C(F)F)n1 [Example I-08] | 3.94^[a]
7 | Cn1nc(C(F)F)c(C(=O)Nc2cccc3c2CC3c2ccccc2)c1Cl (centres unmarked) [Example I-11] | 3.71^[a]
8 | CCC1(C)Cc2c(NC(=O)c3c(C(F)F)nn(C)c3Cl)cccc21 (centres unmarked) [Example I-12] | 3.96^[a]
9 | CCC1(C)Cc2c(NC(=O)c3cn(C)nc3C(F)F)cccc21 (centres unmarked) [Example I-13] | 3.44^[a]
10 | CCC1(CC)Cc2c(NC(=O)c3c(C(F)F)nn(C)c3F)cccc21 [Example I-14] | 4.11^[a]
11 | CC(C)C1Cc2c(NC(=O)c3c(C(F)F)nn(C)c3Cl)cccc21 (centres unmarked) [Example I-16] | 4.06^[a]
12 | Cn1nc(C(F)F)c(C(=O)Nc2cccc3c2CC32CCCCC2)c1F [Example I-18] | 4.31^[a]
13 | Cn1nc(C(F)F)c(C(=O)Nc2cccc3c2CC32CCCC2)c1Cl [Example I-21] | 4.14^[a]

Other lines, results leading:

Row | LogP | SMILES
14 | 4.36^[a] | CCC1(CC)Cc2c(NC(=O)c3c(C(F)F)nn(C)c3Cl)cccc21 [Example I-04]
15 | 3.39^[a] | CC(C)C1Cc2c(NC(=O)c3cccnc3C(F)F)cccc21 (centres unmarked) [Example I-06]
16 | 3.46^[a] | O=C(Nc1cccc2c1CC21CCCC1)c1cccnc1C(F)F [Example I-09]
17 | 3.87^[a] | Cc1nn(C)c(F)c1C(=O)Nc1cccc2c1CC21CCCCC1 [Example I-10]
18 | 3.02^[a] | CC1Cc2c(NC(=O)c3c(C(F)F)nn(C)c3F)cccc21 (centres unmarked) [Example I-15]
19 | 3.80^[a] | O=C(Nc1cccc2c1CC21CCCCC1)c1cccnc1C(F)F [Example I-17]
20 | 3.06^[a] | O=C(Nc1cccc2c1CC2c1ccccc1)c1cccnc1C(F)F (centres unmarked) [Example I-19]
21 | 3.50^[a] | CC(C)C1Cc2c(NC(=O)c3cn(C)nc3C(F)F)cccc21 (centres unmarked) [Example I-20]

same assay, conditions: Table 2 (amines III-a); method [a]: LC-UV, acidic range, 0.1% formic acid in water and acetonitrile

Row | SMILES | LogP
22 | Nc1cccc2c1CC21CCCC1 [III-a-1] | 2.03^[a]
23 | CCC1(CC)Cc2c(N)cccc21 [III-a-2] | 2.32^[a]
24 | CC(C)C1Cc2c(N)cccc21 (centres unmarked) [III-a-4] | 1.90^[a]
25 | CC1(C)Cc2c(N)cccc21 [III-a-5] | 1.36^[a]
26 | Nc1cccc2c1CC2c1ccccc1 (centres unmarked) [III-a-8] | 2.20^[a]

Now from value to compound:

Row | LogP | SMILES
27 | 0.87^[a] | CC1Cc2c(N)cccc21 (centres unmarked) [III-a-3]
28 | 1.82^[a] | CCC1(C)Cc2c(N)cccc21 (centres unmarked) [III-a-6]
29 | 2.37^[a] | Nc1cccc2c1CC21CCCCC1 [III-a-7]
